Source: patent publication US10004702B2, “Linear guanidine derivatives, methods of preparation and uses thereof” (LEAD DISCOVERY SIENA S.R.L., priority 2014, dated 2018)
Values after ≈ are worked out from the molar mass of the structure shown. Read-outs that look alike come from different tables or passages of the source.

Legend:
[1] = tested on: Enterobacter cloacae VA-417/02 (VIM-4); experiment: Antimicrobial susceptibility testing, MIC by microdilution broth method; type: cell-based; details: Enterobacter cloacae, read-out: MIC
Description: (§1) Bacterial strains were obtained from the ATCC or CCUG culture collections or present in the authors' collection of clinical isolates. Compounds were re-suspended in dimethyl sulfoxyde (DMSO) at a final concentration of 10 mg/ml and subsequently diluted in the culture medium. The minimum inhibitory concentrations (MICs) of the compounds of the invention were determined using the microdilution broth method using Mueller-Hinton broth as recommended by the Clinical Laboratory Standards Institute (CLSI [11]). Bacterial inoculum was 5×10^4 CFU/well. MICs were recorded after 18-24 hours incubation at 35-37° C.
(§2) The Antibacterial activity of compound 28 was also tested on a panel of Gram-negative and Gram-positive clinical isolates, showing various antimicrobial susceptibility profiles (Table 4). The class of drugs for which the isolate was resistant to is indicated in column 2 (PEN, penicillins; ES-CEPH, expanded-spectrum cephalosporins; CARB, carbapenems; AZT; aztreonam; AG, aminoglycosides; FQ, fluoroquinolones; SXT, trimethoprim/sulfamethoxazole; FOS, fosfomycin; GLY, glycopeptides; LNZ, linezolid; COL-R, colistin resistant; COL-S colistin sensitive; PDR, poly-drug resistant).

[2] = tested on: Klebsiella pneumoniae 081R; experiment: as above; type: cell-based; details: Klebsiella pneumoniae, 081R
Description: as §1, §2

[3] = tested on: Acinetobacter baumannii AC-54/97 (IMP-2); experiment: as above; type: cell-based; details: Acinetobacter baumannii, read-out: MIC
Description: as §1, §2

[4] = tested on: Staphylococcus aureus ATCC 25923; experiment: as above; type: cell-based; details: ATCC25923, Mueller-Hinton broth, 18-24 hours at 35-37° C., read-out: MIC
Description: as §1

[5] = tested on: Achromobacter xylosoxidans AX 22; experiment: as above; type: cell-based; details: AX22, Mueller-Hinton broth, 18-24 hours at 35-37° C., read-out: MIC
Description: as §1

[6] = tested on: Enterococcus faecalis ATCC 19433; experiment: as above; type: cell-based; details: ATCC19433, Mueller-Hinton broth, 18-24 hours at 35-37° C., read-out: MIC
Description: as §1

[7] = tested on: Acinetobacter baumannii ATCC 17978; experiment: as above; type: cell-based; details: ATCC17978, Mueller-Hinton broth, 18-24 hours at 35-37° C., read-out: MIC
Description: as §1

[8] = tested on: Escherichia coli CCUG^T; experiment: as above; type: cell-based; details: Mueller-Hinton broth, 18-24 hours at 35-37° C., read-out: MIC
Description: as §1

[9] = tested on: Stenotrophomonas maltophilia 634/08; experiment: as above; type: cell-based; details: Mueller-Hinton broth, 18-24 hours at 35-37° C., read-out: MIC
Description: as §1

[10] = tested on: Alcaligenes faecalis 424/98; experiment: as above; type: cell-based; details: Mueller-Hinton broth, 18-24 hours at 35-37° C., read-out: MIC
Description: as §1

[11] = tested on: Klebsiella pneumoniae ATCC 13833; experiment: as above; type: cell-based; details: ATCC13833, Mueller-Hinton broth, 18-24 hours at 35-37° C., read-out: MIC
Description: as §1

[12] = tested on: Bacillus subtilis ATCC 6633; experiment: as above; type: cell-based; details: ATCC6633, Mueller-Hinton broth, 18-24 hours at 35-37° C., read-out: MIC
Description: as §1

[13] = tested on: Burkholderia cepacia RII; experiment: as above; type: cell-based; details: Mueller-Hinton broth, 18-24 hours at 35-37° C., read-out: MIC
Description: as §1

[14] = tested on: Pseudomonas aeruginosa ATCC 27853; experiment: as above; type: cell-based; details: ATCC27853, Mueller-Hinton broth, 18-24 hours at 35-37° C., read-out: MIC
Description: as §1

[15] = tested on: Chryseobacterium meningosepticum CCUG 4310; experiment: as above; type: cell-based; details: Elizabethkingia meningoseptica, CCUG4310, Mueller-Hinton broth, 18-24 hours at 35-37° C., read-out: MIC
Description: as §1

[16] = tested on: Alcaligenes faecalis 424/98; experiment: Bactericidal activity (MBC); type: cell-based
[17] = biological target: Human Serum Albumin (Homo sapiens, UniProt P02768); experiment: Binding fluorimetric assay (tryptophan quenching); details: fixed concentration of HSA titrated with different amounts of compound
Description: The solutions were mixed and after allowing 30 minutes at room temperature to reach the equilibrium conditions, the spectra were recorded. […] The percentages obtained were plotted against the concentrations used and the KD values were calculated using GraphPad software (version 5.0).

[18] = tested on: Chryseobacterium meningosepticum CCUG 4310; experiment: Bactericidal activity (MBC); type: cell-based; details: Elizabethkingia meningoseptica, CCUG4310
[19] = tested on: Klebsiella pneumoniae ATCC 13833; experiment: Bactericidal activity (MBC); type: cell-based; details: ATCC13833
[20] = tested on: Klebsiella pneumoniae 081R; experiment: Bactericidal activity (MBC); type: cell-based
[21] = tested on: human liver microsomial enzymes; experiment: Metabolic stability assay; type: in vitro ADME; details: human liver microsomes, 1 h of incubation at 37° C., 50 μM
Description: The reaction was stopped by cooling in ice and adding 1.0 mL of acetonitrile. The reaction mixtures were then centrifuged, and the parent drug and metabolites were subsequently determined by LC-UV-MS as reported for the solubility assay

[22] = tested on: Gram-positive and Gram-negative organisms; experiment: Antimicrobial susceptibility testing, overall statements on the panel; type: cell-based; details: overall comparison over the tested strains
Description: as §1

[23] = tested on: Enterobacter cloacae VA-417/02 (VIM-4); experiment: Bactericidal activity (MBC); type: cell-based
[24] = tested on: Burkholderia cepacia RII; experiment: Bactericidal activity (MBC); type: cell-based
[25] = tested on: Bacillus subtilis ATCC 6633; experiment: Bactericidal activity (MBC); type: cell-based; details: ATCC6633
[26] = tested on: Pseudomonas aeruginosa ATCC 27853; experiment: Bactericidal activity (MBC); type: cell-based; details: ATCC27853

Sequence of Human Serum Albumin (P02768 25-609): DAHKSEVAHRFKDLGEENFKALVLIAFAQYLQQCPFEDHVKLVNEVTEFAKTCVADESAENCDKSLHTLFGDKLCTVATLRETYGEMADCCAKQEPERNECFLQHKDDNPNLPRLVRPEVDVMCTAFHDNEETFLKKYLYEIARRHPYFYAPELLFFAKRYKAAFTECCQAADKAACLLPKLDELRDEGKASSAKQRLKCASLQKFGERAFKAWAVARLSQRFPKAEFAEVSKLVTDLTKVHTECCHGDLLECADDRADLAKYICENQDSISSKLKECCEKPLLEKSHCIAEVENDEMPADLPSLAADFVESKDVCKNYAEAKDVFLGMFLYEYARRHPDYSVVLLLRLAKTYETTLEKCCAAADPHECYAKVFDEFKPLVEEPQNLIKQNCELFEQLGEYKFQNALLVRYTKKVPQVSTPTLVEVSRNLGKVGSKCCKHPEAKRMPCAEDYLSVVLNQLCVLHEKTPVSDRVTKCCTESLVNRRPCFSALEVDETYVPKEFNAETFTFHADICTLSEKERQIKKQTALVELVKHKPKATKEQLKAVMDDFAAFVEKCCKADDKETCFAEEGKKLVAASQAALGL

Question: N=C(N)NCCCCCCCCN(CCCCCCCCNC(=N)NCC1CC1)C(=O)N(CCCCCCCCNC(=N)N)CCCCCCCCNC(=N)NCC1CC1 [Compound 28, 1,3-bis(8-(3-(cyclopropylmethyl)guanidino)octyl)-1,3-bis(8-guanidinooctyl)urea] was tested. Which MIC ([1]; Enterobacter cloacae VA-417/02 (VIM-4), Tables 2 and 3) did it give?
Answer: 1 µg/mL (≈ 1.18 µM)

Question: And the MIC ([1]; Table 4, Enterobacter cloacae VA-417/02, resistance profile PEN, CEPH, CARB, AG, FQ)?
Answer: 2 µg/mL (≈ 2.37 µM)

Question: And the MIC ([2]; Table 4, resistance profile PDR, read-out: MIC)?
Answer: 4 µg/mL (≈ 4.73 µM)

Question: What about the MIC ([2]; Tables 2 and 3, read-out: MIC) of the same compound?
Answer: 2 µg/mL (≈ 2.37 µM)

Question: What about the MIC ([3]; Acinetobacter baumannii AC-54/97 (IMP-2), Tables 2 and 3) of the same compound?
Answer: 2 µg/mL (≈ 2.37 µM)

Question: And the MIC ([3]; Table 4, Acinetobacter baumannii AC-54/97, resistance profile PEN, ES-CEPH, CARB, AZT, AG, FQ, FOS, SXT)?
Answer: 4 µg/mL (≈ 4.73 µM)

Question: And the MIC [4]?
Answer: 2 µg/mL (≈ 2.37 µM)

Question: And the MIC [5]?
Answer: 8 µg/mL (≈ 9.46 µM)

Question: What about the MIC [6] of the same compound?
Answer: < 0.125 µg/mL

Question: And the MIC [7]?
Answer: 4 µg/mL (≈ 4.73 µM)

Question: And the MIC [8]?
Answer: 1 µg/mL (≈ 1.18 µM)

Question: And the MIC [9]?
Answer: 16 µg/mL (≈ 18.9 µM)

Question: And the MIC [10]?
Answer: 8 µg/mL (≈ 9.46 µM)

Question: And the MIC [11]?
Answer: 1 µg/mL (≈ 1.18 µM)

Question: What about the MIC [12] of the same compound?
Answer: 0.5 µg/mL (≈ 0.591 µM)

Question: And the MIC [13]?
Answer: 8 µg/mL (≈ 9.46 µM)

Question: What about the MIC [14] of the same compound?
Answer: 4 µg/mL (≈ 4.73 µM)

Question: What about the MIC [15] of the same compound?
Answer: 64 µg/mL (≈ 75.7 µM)

Question: And the MBC [16]?
Answer: 8 µg/mL (≈ 9.46 µM)

Question: And the “intrinsic fluorescence decrease of HSA” value [17]?
Answer: scarce intrinsic fluorescence decrease

Question: And the MBC [18]?
Answer: 64 µg/mL (≈ 75.7 µM)

Question: And the MBC [19]?
Answer: 1 µg/mL (≈ 1.18 µM)

Question: And the MBC [20]?
Answer: 2 µg/mL (≈ 2.37 µM)

Question: And the metabolic stability [21]?
Answer: 99.9%

Question: And the “antimicrobial activity (in words)” value [22]?
Answer: most active among the series

Question: And the “antimicrobial spectrum (in words)” value [22]?
Answer: active against both Gram-positive and Gram-negative organisms

Question: What about the MBC [23] of the same compound?
Answer: 1 µg/mL (≈ 1.18 µM)

Question: And the MBC [24]?
Answer: 8 µg/mL (≈ 9.46 µM)

Question: And the MBC [25]?
Answer: 0.5 µg/mL (≈ 0.591 µM)

Question: And the MBC [26]?
Answer: 4 µg/mL (≈ 4.73 µM)
